Data on 1 compound can be found in paper PMC6368365, “Didehydro-Cortistatin A Inhibits HIV-1 by Specifically Binding to the Unstructured Basic Region of Tat” (mBio, 2019).

This assay concerns NL4-3 strain. Kind of assay: HIV-1 NL4-3 infection of HeLa-CD4-LTR-LacZ reporter cells, LacZ measured 72 h later. It is filed as cell-based. The note with it: Human immunodeficiency virus 1, NL43. The text has this:
To understand the structure-function relationship of the dCA molecule with respect to our structural model, we synthesized and characterized the ability of 11 analogs of dCA to inhibit HIV infection (Table 2). […] We used HeLa-CD4 cells stably expressing the HIV-1 5′ LTR driving β-galactosidase production (HeLa-CD4-LTR-LacZ cells) as a reporter for the infection with isolate NL4-3. Table 2 summarizes the IC50, 50% cytotoxic concentration (CC50), and therapeutic index (TI) for each compound. The loss of dCA activity was directly associated with the positioning and the chemical environment of the azote on the F ring and the presence of oxygen in ring B. Moreover, the E-F “skeleton angle” and the distance between the A-B-C-D and F rings affected the activity by more than 50-fold (analogs 7 and 10).
The activity of Tat in HeLa-CD4-LTR-Luc and OM10.1 cells was verified by a transactivation assay as described in reference. In HeLa-CD4-LTR-LacZ cells, the assay was performed as described in reference. A detailed protocol is provided in Text S1.
Transactivation assay. In HeLa-CD4-LTR-Luc cells and OM10.1 cells. The activity of Tat was verified by a transactivation assay as previously reported (13). Briefly, HeLa-CD4-LTR-Luc cells and OM10.1 were plated at 1×10^5 and 8x10^5 cells per well of a 6-well plate respectively. The following day, recombinant Tat protein was added to the cells in culture media without serum and in the presence of 100 μM of Chloroquine. Five hours later, serum was added at 5 % to the culture media. Cells were lysed 24 hrs later, protein concentration determined by Bradford assay and luciferase activity was measured for HeLa-CD4-LTR-Luc cells. Results corresponding to luciferase activity per protein concentration of each sample are shown as relative light unit (RLU). As for the OM10.1 cells, RNA was extracted using the RNA extraction kit (Qiagen) and DNA contamination was removed using Turbo-DNAse kit (Ambion). First-strand cDNA was synthesized using SuperscriptIII^TM first-strand cDNA kit (Invitrogen) and random hexamers as first-strand primers. qRT-PCR was performed with an aliquot of cDNA as template, using LightCycler? 480 SYBR Green I Master in a 20 µL reaction according to the manufacturer’s instructions. The mRNAs from each sample were used as negative control. Primer sequences for GAPDH (13) and all viral mRNAs as previously described (59). In HeLa-CD4-LTR-LacZ cells. It was performed as previously described (10). Briefly, cells were plated at 1×10^4 cells per well of a 96-well plate. Twenty-four hrs later HIV-1 NL4-3 strain was added in the presence of testing compound or DMSO. Seventy-two hrs post infection, cells were disrupted in lysis buffer (60 mM Na2HPO4, 40 mM NaH2PO4, 10 mM KCl, 10 mM MgSO4, 2.5 mM EDTA, 50 mM ß-mercaptoethanol, 0.125 % Nonidet P-40) and a quantitative chlorophenol red-ß-D-galactopyranoside (CPRG)-based (Boehringer Mannheim) assay was performed. The cell extracts were incubated in a reaction buffer (0.9 M phosphate buffer [pH 7.4], 9 mM MgCl2, 11 mM ß-mercaptoethanol, 7 mM CPRG) until a red color developed and measured with an LP400 (Becton Dickinson) plate reader at 572 nm.

Like-named read-outs stand apart in the source and are kept apart here.

Turning to `CN(C)C1CC23CCC4(O2)C(=CCC2(C)C(c5ccc6ccncc6c5)=CCC24)C=C3C(O)C1O` (centres unmarked) [dCA, didehydro-cortistatin A], the IC50 (HeLa-CD4-LTR-LacZ cells infected with NL4-3, LacZ at 72 h, mean ± SD, n = 2 to 3, read-out: IC50) turned out to be 0.6 ± 0.3 nM; the IC50 (span of Table 2 and earlier value, read-out: dCA inhibitory activity in cell-based assays) lay within 0.6 to 2 nM.
